Results: ChEMBL document CHEMBL5291721, “A preclinical secondary pharmacology resource illuminates target-adverse drug reaction associations of marketed drugs” (Nat Commun, 2023)

Experiments:
[1] = target: 5-hydroxytryptamine receptor 5A (Homo sapiens, UniProt P47898)
[2] = target: Rod cGMP-specific 3',5'-cyclic phosphodiesterase subunit alpha (Homo sapiens, UniProt P16499); format: functional
[3] = target: T1, Type-1 angiotensin II receptor (Homo sapiens, UniProt P30556)
T1 sequence (P30556 whole entry): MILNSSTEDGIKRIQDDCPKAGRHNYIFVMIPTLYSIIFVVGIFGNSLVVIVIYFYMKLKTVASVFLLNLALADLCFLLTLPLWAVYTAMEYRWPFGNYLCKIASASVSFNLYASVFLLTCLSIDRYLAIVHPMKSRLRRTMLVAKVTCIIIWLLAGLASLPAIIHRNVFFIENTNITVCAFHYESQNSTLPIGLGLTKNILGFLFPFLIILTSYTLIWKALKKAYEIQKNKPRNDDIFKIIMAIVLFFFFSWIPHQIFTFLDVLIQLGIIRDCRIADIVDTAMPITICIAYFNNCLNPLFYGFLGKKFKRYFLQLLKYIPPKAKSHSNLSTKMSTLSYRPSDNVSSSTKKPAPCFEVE

[4] = target: T2, Type-2 angiotensin II receptor (Homo sapiens, UniProt P50052); format: functional
T2 sequence (P50052 whole entry): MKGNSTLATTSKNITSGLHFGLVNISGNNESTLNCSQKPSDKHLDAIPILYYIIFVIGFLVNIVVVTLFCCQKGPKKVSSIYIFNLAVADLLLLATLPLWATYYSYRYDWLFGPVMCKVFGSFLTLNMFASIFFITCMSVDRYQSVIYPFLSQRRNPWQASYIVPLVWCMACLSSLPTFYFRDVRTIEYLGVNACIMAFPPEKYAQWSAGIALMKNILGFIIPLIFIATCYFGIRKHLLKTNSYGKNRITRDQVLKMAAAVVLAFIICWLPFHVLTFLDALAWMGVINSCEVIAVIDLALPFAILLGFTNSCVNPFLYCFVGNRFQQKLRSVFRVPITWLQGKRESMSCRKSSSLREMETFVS

[5] = target: T3, Histamine H1 receptor (Homo sapiens, UniProt P35367); format: functional, cell-based
T3 sequence (P35367 whole entry): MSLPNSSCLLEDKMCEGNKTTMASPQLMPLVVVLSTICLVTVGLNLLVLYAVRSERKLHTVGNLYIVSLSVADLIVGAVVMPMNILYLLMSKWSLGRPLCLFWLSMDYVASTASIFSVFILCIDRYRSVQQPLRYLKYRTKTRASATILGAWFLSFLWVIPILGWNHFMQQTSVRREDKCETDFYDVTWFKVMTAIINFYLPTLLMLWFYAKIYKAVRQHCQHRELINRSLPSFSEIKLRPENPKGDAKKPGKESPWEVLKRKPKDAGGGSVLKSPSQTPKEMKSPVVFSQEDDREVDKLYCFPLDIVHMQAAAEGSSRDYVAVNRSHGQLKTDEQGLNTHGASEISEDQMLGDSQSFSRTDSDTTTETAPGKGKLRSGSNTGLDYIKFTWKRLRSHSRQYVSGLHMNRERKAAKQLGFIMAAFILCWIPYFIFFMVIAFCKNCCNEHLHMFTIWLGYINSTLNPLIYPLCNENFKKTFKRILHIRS

[6] = target: T3, Histamine H1 receptor; format: functional, cell-based; remark: listed apart in the source
[7] = target: T4, Peroxisome proliferator-activated receptor alpha (Homo sapiens, UniProt Q07869); format: functional
T4 sequence (Q07869 whole entry): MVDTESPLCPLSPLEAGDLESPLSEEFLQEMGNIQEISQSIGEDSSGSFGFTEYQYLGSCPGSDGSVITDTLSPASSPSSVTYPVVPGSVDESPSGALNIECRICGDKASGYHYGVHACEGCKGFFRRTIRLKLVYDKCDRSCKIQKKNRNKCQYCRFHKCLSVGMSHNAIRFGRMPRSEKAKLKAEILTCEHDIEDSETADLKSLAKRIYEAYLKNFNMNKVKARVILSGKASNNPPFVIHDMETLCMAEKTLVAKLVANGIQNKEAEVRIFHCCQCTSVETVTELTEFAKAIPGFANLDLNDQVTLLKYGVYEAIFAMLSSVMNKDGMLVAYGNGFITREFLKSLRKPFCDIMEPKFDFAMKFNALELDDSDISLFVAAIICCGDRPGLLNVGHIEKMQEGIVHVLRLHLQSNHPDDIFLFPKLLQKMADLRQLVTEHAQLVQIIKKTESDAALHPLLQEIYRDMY

[8] = target: Oxysterols receptor LXR-beta (Homo sapiens, UniProt P55055); format: functional
Sequence of Oxysterols receptor LXR-beta (P55055 whole entry): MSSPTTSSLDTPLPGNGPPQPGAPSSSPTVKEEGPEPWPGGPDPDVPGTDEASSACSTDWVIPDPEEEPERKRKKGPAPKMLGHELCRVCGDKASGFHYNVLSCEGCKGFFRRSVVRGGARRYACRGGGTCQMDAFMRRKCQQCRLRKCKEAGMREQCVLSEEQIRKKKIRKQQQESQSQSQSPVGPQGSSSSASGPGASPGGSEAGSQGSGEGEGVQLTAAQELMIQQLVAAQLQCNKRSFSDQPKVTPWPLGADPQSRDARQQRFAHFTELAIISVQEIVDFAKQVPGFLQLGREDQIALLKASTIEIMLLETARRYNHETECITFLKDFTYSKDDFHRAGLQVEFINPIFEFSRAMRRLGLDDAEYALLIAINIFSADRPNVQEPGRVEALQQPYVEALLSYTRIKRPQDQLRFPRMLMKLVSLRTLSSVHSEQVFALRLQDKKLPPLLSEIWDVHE

[9] = target: Oxysterols receptor LXR-alpha (Homo sapiens, UniProt Q13133); format: functional
Sequence of Oxysterols receptor LXR-alpha (Q13133 whole entry): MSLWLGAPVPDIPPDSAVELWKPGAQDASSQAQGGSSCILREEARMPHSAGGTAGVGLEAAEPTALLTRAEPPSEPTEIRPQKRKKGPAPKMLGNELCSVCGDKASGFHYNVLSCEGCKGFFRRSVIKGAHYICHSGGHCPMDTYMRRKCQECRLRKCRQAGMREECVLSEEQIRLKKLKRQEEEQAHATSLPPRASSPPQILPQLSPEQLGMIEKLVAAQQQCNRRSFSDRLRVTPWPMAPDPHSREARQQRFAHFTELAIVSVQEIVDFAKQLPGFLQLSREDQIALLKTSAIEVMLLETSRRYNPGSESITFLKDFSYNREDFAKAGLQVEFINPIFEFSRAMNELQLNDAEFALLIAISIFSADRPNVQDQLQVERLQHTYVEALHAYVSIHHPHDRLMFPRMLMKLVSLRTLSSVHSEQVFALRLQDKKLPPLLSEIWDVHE

[10] = target: T5, Retinoic acid receptor gamma (Homo sapiens, UniProt P13631); format: functional, cell-based
T5 sequence (P13631 whole entry): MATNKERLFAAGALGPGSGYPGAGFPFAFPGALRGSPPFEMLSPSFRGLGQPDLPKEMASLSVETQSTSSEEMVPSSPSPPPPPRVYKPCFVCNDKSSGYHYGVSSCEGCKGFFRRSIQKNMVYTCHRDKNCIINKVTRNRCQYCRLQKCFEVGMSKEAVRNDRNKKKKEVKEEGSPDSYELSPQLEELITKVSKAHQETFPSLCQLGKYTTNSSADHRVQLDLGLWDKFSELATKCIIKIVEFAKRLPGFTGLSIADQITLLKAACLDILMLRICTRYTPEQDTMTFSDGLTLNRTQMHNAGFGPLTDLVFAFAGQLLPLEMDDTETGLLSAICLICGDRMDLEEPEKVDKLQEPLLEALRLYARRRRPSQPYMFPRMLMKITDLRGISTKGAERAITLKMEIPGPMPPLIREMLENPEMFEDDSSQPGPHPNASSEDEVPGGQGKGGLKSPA

[11] = target: Retinoic acid receptor beta (Homo sapiens, UniProt P10826); format: functional, cell-based
Sequence of Retinoic acid receptor beta (P10826 whole entry): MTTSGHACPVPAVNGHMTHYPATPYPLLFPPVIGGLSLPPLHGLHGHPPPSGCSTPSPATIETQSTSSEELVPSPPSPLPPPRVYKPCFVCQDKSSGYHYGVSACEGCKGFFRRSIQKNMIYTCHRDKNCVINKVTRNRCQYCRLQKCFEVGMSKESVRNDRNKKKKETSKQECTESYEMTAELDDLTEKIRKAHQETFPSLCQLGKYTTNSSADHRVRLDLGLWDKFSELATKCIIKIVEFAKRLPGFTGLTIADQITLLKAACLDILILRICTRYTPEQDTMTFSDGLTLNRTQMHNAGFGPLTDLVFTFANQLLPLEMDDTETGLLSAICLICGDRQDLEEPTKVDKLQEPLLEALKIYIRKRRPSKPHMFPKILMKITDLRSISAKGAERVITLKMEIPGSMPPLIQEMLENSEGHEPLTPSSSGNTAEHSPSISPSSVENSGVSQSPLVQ

[12] = target: T5, Retinoic acid receptor gamma; format: functional, cell-based; remark: listed apart in the source
[13] = target: T6, Muscarinic acetylcholine receptor M1 (Homo sapiens, UniProt P11229); format: functional, cell-based
T6 sequence (P11229 whole entry): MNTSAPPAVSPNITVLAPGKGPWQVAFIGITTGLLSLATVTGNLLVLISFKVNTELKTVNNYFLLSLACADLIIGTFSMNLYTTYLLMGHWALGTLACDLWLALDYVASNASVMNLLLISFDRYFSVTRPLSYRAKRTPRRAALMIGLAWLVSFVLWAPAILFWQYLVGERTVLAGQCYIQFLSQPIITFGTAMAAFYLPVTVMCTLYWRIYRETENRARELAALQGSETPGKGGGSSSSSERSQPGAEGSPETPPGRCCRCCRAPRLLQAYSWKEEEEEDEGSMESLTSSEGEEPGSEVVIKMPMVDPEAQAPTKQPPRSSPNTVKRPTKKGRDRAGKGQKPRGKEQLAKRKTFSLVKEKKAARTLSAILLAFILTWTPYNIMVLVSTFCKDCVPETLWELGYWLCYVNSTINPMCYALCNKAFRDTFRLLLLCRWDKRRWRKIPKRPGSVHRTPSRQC

[14] = target: T7, Muscarinic acetylcholine receptor M2 (Homo sapiens, UniProt P08172)
T7 sequence (P08172 whole entry): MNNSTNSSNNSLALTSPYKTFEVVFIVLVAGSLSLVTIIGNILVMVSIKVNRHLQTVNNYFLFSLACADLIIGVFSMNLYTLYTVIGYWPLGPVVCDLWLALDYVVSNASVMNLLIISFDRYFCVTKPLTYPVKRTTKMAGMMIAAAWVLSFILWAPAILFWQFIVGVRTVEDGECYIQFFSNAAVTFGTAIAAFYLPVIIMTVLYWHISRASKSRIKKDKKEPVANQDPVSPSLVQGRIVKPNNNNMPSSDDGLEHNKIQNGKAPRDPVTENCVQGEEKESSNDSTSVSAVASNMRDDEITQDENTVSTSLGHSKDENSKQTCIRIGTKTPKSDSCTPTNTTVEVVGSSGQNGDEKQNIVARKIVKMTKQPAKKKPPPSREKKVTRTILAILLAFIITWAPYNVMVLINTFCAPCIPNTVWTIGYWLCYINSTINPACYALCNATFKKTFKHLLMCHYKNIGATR

[15] = target: T6, Muscarinic acetylcholine receptor M1; format: functional, cell-based; remark: listed apart in the source
Also: assay procedure not described here.

Sequence of 5-hydroxytryptamine receptor 5A (P47898 whole entry): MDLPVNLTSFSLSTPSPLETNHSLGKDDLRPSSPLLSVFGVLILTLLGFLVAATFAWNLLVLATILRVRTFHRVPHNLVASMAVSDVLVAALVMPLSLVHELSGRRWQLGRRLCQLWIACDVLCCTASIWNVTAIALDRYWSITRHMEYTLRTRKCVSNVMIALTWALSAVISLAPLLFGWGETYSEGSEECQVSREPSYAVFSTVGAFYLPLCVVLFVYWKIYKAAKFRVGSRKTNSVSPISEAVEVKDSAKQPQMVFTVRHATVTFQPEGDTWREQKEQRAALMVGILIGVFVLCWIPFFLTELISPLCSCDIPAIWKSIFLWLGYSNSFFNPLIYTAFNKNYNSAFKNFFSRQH
Sequence of Rod cGMP-specific 3',5'-cyclic phosphodiesterase subunit alpha (P16499 whole entry): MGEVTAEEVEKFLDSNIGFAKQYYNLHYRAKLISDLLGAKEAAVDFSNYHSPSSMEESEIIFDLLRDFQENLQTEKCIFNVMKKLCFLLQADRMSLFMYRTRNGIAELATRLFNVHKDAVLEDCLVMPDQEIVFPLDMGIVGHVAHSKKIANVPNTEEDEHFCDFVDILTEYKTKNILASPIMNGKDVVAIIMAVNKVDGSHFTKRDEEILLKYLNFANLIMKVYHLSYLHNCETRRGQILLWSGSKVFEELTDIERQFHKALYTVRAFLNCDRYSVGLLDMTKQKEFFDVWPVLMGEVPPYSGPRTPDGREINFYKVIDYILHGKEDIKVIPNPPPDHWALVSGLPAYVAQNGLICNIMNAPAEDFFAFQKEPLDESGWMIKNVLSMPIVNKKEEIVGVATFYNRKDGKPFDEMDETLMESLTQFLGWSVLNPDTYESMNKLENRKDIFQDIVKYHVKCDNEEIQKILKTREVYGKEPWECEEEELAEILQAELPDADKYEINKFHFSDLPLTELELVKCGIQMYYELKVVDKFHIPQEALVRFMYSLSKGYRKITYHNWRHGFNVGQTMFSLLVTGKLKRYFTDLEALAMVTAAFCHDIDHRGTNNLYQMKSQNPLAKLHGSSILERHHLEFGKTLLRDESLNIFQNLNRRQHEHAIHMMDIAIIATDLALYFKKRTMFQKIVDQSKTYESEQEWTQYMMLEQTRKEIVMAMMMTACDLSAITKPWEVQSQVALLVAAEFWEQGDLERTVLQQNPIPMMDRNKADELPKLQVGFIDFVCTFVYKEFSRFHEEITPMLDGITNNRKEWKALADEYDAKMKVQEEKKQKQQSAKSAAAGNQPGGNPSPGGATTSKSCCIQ

## CCOc1nc2cccc(C(=O)O)c2n1Cc1ccc(-c2ccccc2-c2nnn[nH]2)cc1
[1]
  AC50: > 10 µM
[2]
  AC50: > 10 µM
[3]
  AC50: 0.0004 µM

## O=C(O)Cc1ccccc1Nc1c(Cl)cccc1Cl [DICLOFENAC]
[1]
  AC50: > 10 µM
[2]
  AC50: > 10 µM
[4]
  AC50: 85 µM

## O=C(O)Cc1ccccc1Oc1ccc(Cl)cc1Cl [FENCLOFENAC]
[5]
  AC50: > 30 µM
[6]
  AC50: > 30 µM

## CN1Cc2c(N)cccc2C(c2ccccc2)C1 (centres undefined) [NOMIFENSINE]
[5]
  AC50: > 30 µM
[6]
  AC50: > 30 µM

## COc1cc(C(=O)NS(=O)(=O)c2ccccc2C)ccc1Cc1cn(C)c2ccc(NC(=O)OC3CCCC3)cc12 [ZAFIRLUKAST]
[7]
  AC50: > 30 µM
[8]
  AC50: > 30 µM
[9]
  AC50: > 30 µM
[10]
  AC50: > 30 µM
[11]
  AC50: > 30 µM
[12]
  AC50: > 30 µM

## O=C1Cc2cc(CCN3CCN(c4nsc5ccccc45)CC3)c(Cl)cc2N1 [ZIPRASIDONE]
[13]
  AC50: 20 µM
[14]
  AC50: 6.3 µM
[15]
  AC50: > 30 µM
